According to ChEMBL document CHEMBL1145107, “Peptide science: exploring the use of chemical principles and interdisciplinary collaboration for understanding life processes” (J Med Chem, 2003):
*1 amine or outer side, *2 acyl side, *3 side chain or, on linkers, in order; H or OH if unused. Where a SMILES comes first, the peptide text is derived from it. [ ]: non-standard residue; d: D form. X1 = Cc1cc(O)cc(C)c1[C@H](C)[C@@H](N[*:1])C(=O)[*:2]; X3 = Cc1cc(O)cc(C)c1[C@@H](C)[C@H](N[*:1])C(=O)[*:2]; Pen = CC(C)(S)[C@H](N)C(=O)O

How the values were obtained:
[1] = biological target: Delta-type opioid receptor (Mus musculus, UniProt P32300); experiment: In vitro bioassay data to determine the effective concentration required for antagonistic activity against Opioid receptor delta 1 in functional assay, MVD
[2] = biological target: Delta-type opioid receptor (Rattus norvegicus, UniProt P33533); experiment: Binding affinity towards Opioid receptor delta 1 using [3H]- [p-CIPhe4] DPDPE as radioligand
Mu-type opioid receptor [3] = biological target: T1, Mu-type opioid receptor (Homo sapiens, UniProt P35372); experiment: (§1) Binding affinity towards Opioid receptor mu 1 using [3H]- CTOP as radioligand
Mu-type opioid receptor [4] = biological target: Mu-type opioid receptor (Cavia porcellus, UniProt P97266); experiment: In vitro bioassay data to determine the effective concentration required for antagonistic activity against Opioid receptor mu 1 in functional assay, GPI
[5] = biological target: Mu-type opioid receptor (Cavia porcellus) (UniProt P97266); experiment: In vitro bioassay data to determine the effective concentration required for antagonistic activity against Opioid receptor mu 1 in functional assay, GPI at a concentration of 82 uM; set-up: scale not given: the % may be the effect or the level left
Mu-type opioid receptor [6] = biological target: T1, Mu-type opioid receptor; experiment: as §1; remark: listed apart in the source
[7] = biological target: Mu-type opioid receptor (Cavia porcellus) (UniProt P97266); experiment: In vitro bioassay data to determine the effective concentration required for antagonistic activity against Opioid receptor mu 1 in functional assay, GPI at a concentration of 60 uM; set-up: scale not given: the % may be the effect or the level left

Chain of Mu-type opioid receptor (Cavia porcellus) (P97266 whole entry): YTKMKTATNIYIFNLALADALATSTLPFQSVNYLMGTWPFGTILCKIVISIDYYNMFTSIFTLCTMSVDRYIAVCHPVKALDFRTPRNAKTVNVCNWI
T1 sequence (P35372 whole entry): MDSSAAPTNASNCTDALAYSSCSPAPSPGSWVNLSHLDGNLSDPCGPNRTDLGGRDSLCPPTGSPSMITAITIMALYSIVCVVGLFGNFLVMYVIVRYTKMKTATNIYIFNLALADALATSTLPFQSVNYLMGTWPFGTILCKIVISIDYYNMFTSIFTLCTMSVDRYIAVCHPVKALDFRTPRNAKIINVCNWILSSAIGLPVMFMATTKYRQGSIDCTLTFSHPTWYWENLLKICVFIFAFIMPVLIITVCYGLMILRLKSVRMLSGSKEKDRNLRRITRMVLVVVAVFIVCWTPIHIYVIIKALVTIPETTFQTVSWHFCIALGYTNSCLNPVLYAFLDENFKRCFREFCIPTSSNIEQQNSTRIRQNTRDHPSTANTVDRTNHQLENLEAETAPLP
Chain of Delta-type opioid receptor (Rattus norvegicus, UniProt P33533) (P33533 whole entry): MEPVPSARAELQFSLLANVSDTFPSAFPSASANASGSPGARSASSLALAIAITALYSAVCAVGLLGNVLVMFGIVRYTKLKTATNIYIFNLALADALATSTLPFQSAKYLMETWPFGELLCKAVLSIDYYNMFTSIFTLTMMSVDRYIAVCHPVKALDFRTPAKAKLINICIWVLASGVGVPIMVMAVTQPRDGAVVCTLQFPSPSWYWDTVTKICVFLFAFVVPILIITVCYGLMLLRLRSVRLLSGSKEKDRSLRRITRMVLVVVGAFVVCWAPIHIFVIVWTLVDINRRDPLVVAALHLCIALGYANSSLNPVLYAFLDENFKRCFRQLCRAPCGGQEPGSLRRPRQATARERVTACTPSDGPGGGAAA
Chain of Mu-type opioid receptor (Cavia porcellus, UniProt P97266) (P97266 whole entry): as the sequence (P97266 whole entry) above
Chain of Delta-type opioid receptor (Mus musculus, UniProt P32300) (P32300 whole entry): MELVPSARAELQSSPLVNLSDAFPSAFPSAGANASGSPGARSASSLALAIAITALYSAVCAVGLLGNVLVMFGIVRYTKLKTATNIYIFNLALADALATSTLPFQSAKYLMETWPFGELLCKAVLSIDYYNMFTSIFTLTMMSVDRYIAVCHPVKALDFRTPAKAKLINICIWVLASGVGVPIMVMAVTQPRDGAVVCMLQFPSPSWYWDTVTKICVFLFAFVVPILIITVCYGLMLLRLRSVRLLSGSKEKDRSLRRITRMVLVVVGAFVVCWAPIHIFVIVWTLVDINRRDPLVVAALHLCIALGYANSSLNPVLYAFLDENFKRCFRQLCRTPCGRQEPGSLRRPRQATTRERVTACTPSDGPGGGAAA

Cc1cc(O)cc(C)c1[C@@H](C)[C@@H](N)C(=O)N[C@H]1C(=O)NCC(=O)N[C@@H](Cc2ccccc2)C(=O)N[C@@H](C(=O)O)C(C)(C)SSC1(C)C
EC50 [1]: 2.2 µM
IC50 [2]: 3.5 µM
IC50 (Mu-type opioid receptor [3]): 77 µM
EC50 (Mu-type opioid receptor [4]): 50 µM

Cc1cc(O)cc(C)c1[C@H](C)[C@@H](N)C(=O)N[C@H](C(=O)NCC(=O)N[C@@H](Cc1ccccc1)C(=O)N[C@H](C(=O)O)C(C)(C)S)C(C)(C)S (H-[X1][Pen]GF[Pen]-OH)
Activity [5]: 75%
Activity (Mu-type opioid receptor [6]): 0%

Cc1cc(O)cc(C)c1[C@@H](C)[C@H](N)C(=O)N[C@H](C(=O)NCC(=O)N[C@@H](Cc1ccccc1)C(=O)N[C@H](C(=O)O)C(C)(C)S)C(C)(C)S (H-[X3][Pen]GF[Pen]-OH)
Activity [7]: 0%
